Converted amounts (≈) assume the structure as drawn. The source made the active and inactive calls. The calls are words filed in the database; no cut-off is given here. Where only a bound is given, the exact number is not on record here.

These results are taken from ChEMBL document CHEMBL1770079, “Discovery of small molecule human FPR1 receptor antagonists” (Bioorg Med Chem Lett, 2011).

Series [1] has as its target T1, fMet-Leu-Phe receptor (Homo sapiens, UniProt P21462).
T1 sequence (P21462 whole entry): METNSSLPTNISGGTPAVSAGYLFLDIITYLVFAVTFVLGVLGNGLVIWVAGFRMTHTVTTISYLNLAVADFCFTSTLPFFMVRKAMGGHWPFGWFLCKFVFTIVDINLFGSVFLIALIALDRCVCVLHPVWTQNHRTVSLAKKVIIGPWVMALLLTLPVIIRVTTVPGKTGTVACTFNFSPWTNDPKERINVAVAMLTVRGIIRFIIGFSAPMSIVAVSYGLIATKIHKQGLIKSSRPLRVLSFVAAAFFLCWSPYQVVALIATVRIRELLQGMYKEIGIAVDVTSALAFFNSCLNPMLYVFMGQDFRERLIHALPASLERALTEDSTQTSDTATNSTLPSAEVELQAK
Put plainly: Intrinsic activity at FPR1 in human neutrophils assessed as increase in calcium mobilization by FLIPR assay relative to fMLF. The format is functional. On the technique in general: Calcium flux is commonly read through the fluorescence of an indicator in the cells.

Series [2] concerns the target T1, fMet-Leu-Phe receptor. Briefly: Displacement of [3H]fMLF from human FPR1 expressed in CHO cells by scintillation counting. The format is cell-based. A general note: In a radioligand displacement assay an active substance lowers the binding of a labelled ligand.
Series [3] addresses T1, fMet-Leu-Phe receptor. Briefly: Antagonist activity at FPR1 in human neutrophils assessed as inhibition of fMLF-stimulated calcium mobilization by FLIPR assay. The format is functional.
The target in series [4] is T2, N-formyl peptide receptor 2 (Homo sapiens) (UniProt P25090).
T2 sequence (whole entry): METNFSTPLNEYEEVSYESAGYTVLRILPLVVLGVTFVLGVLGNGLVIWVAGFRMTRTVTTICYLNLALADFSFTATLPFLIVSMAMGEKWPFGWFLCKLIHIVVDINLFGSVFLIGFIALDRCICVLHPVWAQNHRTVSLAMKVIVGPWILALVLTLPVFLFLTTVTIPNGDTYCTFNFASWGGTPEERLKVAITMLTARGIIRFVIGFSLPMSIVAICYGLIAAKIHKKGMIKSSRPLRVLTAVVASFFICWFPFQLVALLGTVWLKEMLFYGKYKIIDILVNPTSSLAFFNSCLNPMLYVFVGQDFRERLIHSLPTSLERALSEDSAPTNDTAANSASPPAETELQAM
Put plainly: Antagonist activity at FPR2 in human neutrophils assessed as inhibition of SHHGtide-stimulated intracellular calcium mobilisation at 50 uM by FLIPR assay. The format is functional, cell-based.

Series [5] has as its target T3, C-X-C chemokine receptor type 2 (Homo sapiens) (UniProt P25025).
T3 sequence (whole entry): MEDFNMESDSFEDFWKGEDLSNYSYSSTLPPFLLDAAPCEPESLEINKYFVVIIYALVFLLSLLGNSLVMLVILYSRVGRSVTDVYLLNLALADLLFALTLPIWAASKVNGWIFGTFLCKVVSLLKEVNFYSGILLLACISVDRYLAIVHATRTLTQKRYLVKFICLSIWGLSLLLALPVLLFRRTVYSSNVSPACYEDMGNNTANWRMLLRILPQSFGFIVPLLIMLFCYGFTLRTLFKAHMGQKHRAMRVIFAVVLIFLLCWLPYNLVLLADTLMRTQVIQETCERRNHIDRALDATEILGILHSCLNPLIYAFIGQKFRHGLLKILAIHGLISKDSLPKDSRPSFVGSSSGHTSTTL
Briefly: Antagonist activity at CXCR2 in human neutrophils assessed as inhibition of GROalpha-stimulated intracellular calcium mobilization at 50 uM by FLIPR assay. The format is functional, cell-based.

In series [6] the target is T4, C5a anaphylatoxin chemotactic receptor 1 (Homo sapiens) (UniProt P21730).
T4 sequence (whole entry): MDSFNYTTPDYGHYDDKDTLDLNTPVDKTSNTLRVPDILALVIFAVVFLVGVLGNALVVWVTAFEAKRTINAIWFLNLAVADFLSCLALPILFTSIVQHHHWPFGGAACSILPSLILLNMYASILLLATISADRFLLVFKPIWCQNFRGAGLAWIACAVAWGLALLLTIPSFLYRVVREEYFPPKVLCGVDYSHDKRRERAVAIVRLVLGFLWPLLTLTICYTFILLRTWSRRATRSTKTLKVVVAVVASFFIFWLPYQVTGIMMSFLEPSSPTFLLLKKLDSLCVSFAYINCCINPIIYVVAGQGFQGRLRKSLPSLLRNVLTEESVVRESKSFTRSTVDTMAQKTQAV
Put plainly: Antagonist activity at C5aR in human neutrophils assessed as inhibition of C5a-stimulated intracellular calcium mobilization at 50 uM by FLIPR assay. The format is functional, cell-based.

For series [7], the target named is T1, fMet-Leu-Phe receptor. Put plainly: Antagonist activity at human FPR1 in expressed in HEK293 cells assessed as inhibition of fMLF-stimulated intracellular calcium mobilisation after 5 mins by FLIPR assay. The format is functional, cell-based.
A short description of series [8]: Antagonist activity at rat FPR1 expressed in HEK293 cells assessed as inhibition of fMLF-stimulated intracellular calcium mobilisation by FLIPR assay. The format is functional, cell-based.
The target in series [9] is T5, fMet-Leu-Phe receptor (Homo sapiens) (UniProt P21462).
T5 sequence (whole entry): T1 sequence (P21462 whole entry)
Put plainly: Agonist activity at FPR1 in human neutrophils assessed as increase in calcium mobilization at 50 uM by FLIPR assay. The format is functional.

The target of series [10] is T1, fMet-Leu-Phe receptor. Put plainly: Antagonist activity at FPR1 in human neutrophils assessed as inhibition of fMLF-stimulated degranulation after 15 mins by fluorescence assay. The format is functional.
In series [11] the target is T5, fMet-Leu-Phe receptor (Homo sapiens). Briefly: Antagonist activity at FPR1 in human neutrophils assessed as inhibition of PMA-stimulated neutrophil degranulation after 15 mins by fluorescence assay. The format is functional.
The target is the same in series [12]. Put plainly: Reversible inhibition of FPR1 in human neutrophils assessed as inhibition of fMLF-stimulated calcium mobilisation by FLIPR assay. The format is functional.
Another series deals with THP-1. Briefly: Cytotoxicity against human THP1 cells assessed as cell viability after 24 hrs by Alamar blue assay. To be noted: THP-1, 24 h. The format is cell-based. (Resazurin is reduced to fluorescent resorufin, in cell work by metabolically active cells.)
The nature of series [13]: Solubility of the compound in 0.1 M phosphate buffer. The format is physicochemical.
Series [14] has as its target T6, fMet-Leu-Phe receptor (Mus musculus) (UniProt P33766).
T6 sequence (whole entry): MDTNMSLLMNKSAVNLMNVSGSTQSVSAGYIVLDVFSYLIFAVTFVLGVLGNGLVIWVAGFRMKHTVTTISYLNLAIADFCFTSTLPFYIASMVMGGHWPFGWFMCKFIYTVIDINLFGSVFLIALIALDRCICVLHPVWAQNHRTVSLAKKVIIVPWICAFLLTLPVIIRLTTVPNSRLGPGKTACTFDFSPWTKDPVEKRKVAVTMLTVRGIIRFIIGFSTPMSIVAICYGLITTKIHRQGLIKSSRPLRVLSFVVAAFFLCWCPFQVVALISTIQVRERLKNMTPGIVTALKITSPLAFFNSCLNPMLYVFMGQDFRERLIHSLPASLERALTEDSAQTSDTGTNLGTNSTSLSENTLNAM
Put plainly: Antagonist activity at mouse FPR1 expressed in HEK293 cells assessed as inhibition of fMLFF-stimulated intracellular calcium mobilisation at 50 uM by FLIPR assay. The format is functional, cell-based.

Series [15] is described as follows: Intrinsic clearance in human microsomes. The format is ADME, Microsome.
The target in series [16] is T5, fMet-Leu-Phe receptor (Homo sapiens). Briefly: Antagonist activity at FPR1 in human neutrophils assessed as inhibition of fMLF-stimulated calcium mobilization at 50 uM by FLIPR assay. The format is functional.
The target is the same in series [17]. Put plainly: Agonist activity at FPR1 in human neutrophils assessed as increase in calcium mobilization by FLIPR assay. The format is functional. Further details: concentration or dose not given beside the values. To be noted: concentration not given here.
Series [18] deals with T7, fMet-Leu-Phe receptor (Mus musculus, UniProt P33766).
T7 sequence (P33766 whole entry): T6 sequence (whole entry)
Put plainly: Antagonist activity at mouse FPR1 expressed in HEK293 cells assessed as inhibition of fMLFF-stimulated intracellular calcium mobilisation by FLIPR assay. The format is functional, cell-based.

The next series has as its system Hepatocyte. Put plainly: Intrinsic clearance in Sprague-Dawley rat hepatocytes. The format is ADME, cell-based, Liver.
The nature of series [19]: Chemical stability of the compound assessed as half life. The format is physicochemical.

By IC50 is commonly meant the concentration that gives 50% inhibition. For `CSCCC(NC(=O)c1oc2ccccc2c1C)c1nc2ccccc2[nH]1` (centres undefined), the IC50 on fMet-Leu-Phe receptor [1] is 3980 nM.

As to `Cc1cccc(C)c1NC(=O)C(NC(=O)c1ccccc1O)c1ccccc1` (centres undefined), on fMet-Leu-Phe receptor [1], the IC50 was 1260 nM.

With `CSCCC(NC(=O)c1ccc(C)cc1)c1nc2ccccc2[nH]1` (centres undefined), the IC50 on fMet-Leu-Phe receptor [1] is 10000 nM.

A word on the inhibition: it is how much of the control response was suppressed. As a reminder, the solubility is the concentration that dissolves in the medium under given conditions. Consider `CCOc1ccc2oc(C(=O)NC(CCSC)c3nc4ccccc4[nH]3)c(C)c2c1` (centres undefined), for which the IC50 at fMet-Leu-Phe receptor [2] is 31.6 nM; at fMet-Leu-Phe receptor [3] it was 501 nM; at fMet-Leu-Phe receptor [1], 501 nM; on fMet-Leu-Phe receptor [7], 3160 nM; in [8], 10000 nM; at fMet-Leu-Phe receptor [10], 158 nM. Moreover, the IC50 in the series on THP-1 is 100000 nM. In addition, the inhibition in [4], in series [5], in series [6], in series [9], in series [11] and in series [14] was under 25% throughout. In series [12], the inhibition entry is “Active”. In series [13], the solubility amounted to 17 µM (≈ 7.2 µg/mL).

One may read the microsomal CLint as the capacity of the preparation to metabolise the compound, expressed as a volume cleared per time. Molecule `CCOc1ccc2oc(C(=O)NC(c3ccccc3)c3nc4ccccc4[nH]3)c(C)c2c1` (centres undefined) registered an intrinsic metabolic clearance (microsomal CLint) in [15] of 14 µL/min/mg. Further, the inhibition in series [16] is under 25%.

For `O=C(NC(C(=O)Nc1ccccc1)c1ccc(Cl)cc1)c1ccccc1O` (centres undefined), the IC50 on fMet-Leu-Phe receptor [1] is 5010 nM.

For the molecule `O=C(NC(C(=O)NC1CCCCC1)c1ccc(Cl)cc1)c1ccccc1O` (centres undefined), the IC50 on fMet-Leu-Phe receptor [1] was 2510 nM.

In the case of `CSCCC(NC(=O)c1ocnc1C)c1nc2ccccc2[nH]1` (centres undefined), at fMet-Leu-Phe receptor [1], the IC50 is 10000 nM.

On to `CCOc1ccc2oc(C(=O)NC(CS(C)(=O)=O)c3nc4ccccc4[nH]3)c(C)c2c1` (centres undefined), for which the microsomal CLint in [15] stood at 3 µL/min/mg. The IC50 at fMet-Leu-Phe receptor [1] was 10000 nM.

For the molecule `Cc1cccc(C)c1NC(=O)C(NC(=O)c1ccccc1O)C1CCCCC1` (centres undefined), the IC50 at fMet-Leu-Phe receptor [1] was 794 nM.

In the case of `CSCCC(NC(=O)c1ccccc1O)c1nc2ccccc2[nH]1` (centres undefined), the IC50 at fMet-Leu-Phe receptor [1] is 3980 nM.

With `CSCCC(NC(=O)c1sccc1Cl)c1ncc(-c2ccccc2)[nH]1` (centres undefined), the inhibition in series [17] is under 25%. For the same molecule, at fMet-Leu-Phe receptor [1], the IC50 is 6310 nM.

Broadly, the half-life is how long it takes for the measured level to halve. Regarding `Cc1ccc(C(NC(=O)c2ccccc2O)C(=O)Nc2c(C)cccc2C)s1` (centres undefined), the IC50 was 100 nM on fMet-Leu-Phe receptor [2]; 398 nM on fMet-Leu-Phe receptor [3]; 316 nM at fMet-Leu-Phe receptor [1]; 1580 nM on fMet-Leu-Phe receptor [7]; 25100 nM at fMet-Leu-Phe receptor [18]; 1260 nM in series [8]. The values for the IC50 on fMet-Leu-Phe receptor [10] and in the series with THP-1 were 398 nM and 79400 nM, respectively. In series [15], this molecule yielded a microsomal CLint of 43 µL/min/mg. Besides, the inhibition in [4], in [5], in series [6], in series [9] and in series [11] was under 25% in each case. In the series with Hepatocyte, this molecule had a CL of 70 µL/min. Also, in series [12], the inhibition entry is “Active”. The same molecule yielded a solubility in [13] of 68 µM (≈ 26.8 µg/mL). Also, in series [19], the half-life was over 10.8 days.

`CSCCC(NC(=O)c1cnccn1)c1nc2ccccc2[nH]1` (centres undefined): the IC50 on fMet-Leu-Phe receptor [1] is 10000 nM.

For `CCOc1ccc2oc(C(=O)N[C@@H](CSC)c3nc4ccccc4[nH]3)c(C)c2c1`, the IC50 on fMet-Leu-Phe receptor [1] is over 25100 nM.

As to `CSCCC(NC(=O)c1occc1C)c1nc2ccccc2[nH]1` (centres undefined), the IC50 at fMet-Leu-Phe receptor [1] is 3980 nM.

Take `Cc1cccc(C)c1NC(=O)C(NC(=O)c1ccccc1O)c1ccc(Cl)cc1` (centres undefined): the IC50 on fMet-Leu-Phe receptor [1] was 794 nM.

For the molecule `CSCCC(NC(=O)c1ccccc1)c1nc2ccccc2n1Cc1ccccc1` (centres undefined), the inhibition in series [17] is under 25%. Besides, the IC50 at fMet-Leu-Phe receptor [1] was 2510 nM.

As for `CCOc1ccc2oc(C(=O)NC(c3nc4ccccc4[nH]3)c3cccs3)c(C)c2c1` (centres undefined), the inhibition in series [16] is under 25%.
